Test results published in patent US20230077362A1 (CORTEVA AGRISCIENCE LLC, priority 2019, published 2023).
Like-named read-outs stand apart in the source and are kept apart here.

What was measured:
Type in all cases: in vivo
[1] = tested on: Beet Armyworm (Spodoptera exigua) ("BAW"), second instar larvae; experiment: Bioassay on beet armyworm (BAW), 128-well diet tray assay; details: Spodoptera exigua
Method in brief: (§1)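 Second-instar larvae on diet in 128-well trays, covered and held at 25° C, 14:10 light-dark, for five to seven days. Percent mortality scored per well and averaged over eight wells; activity reported as a rating category.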

[2] = tested on: Cabbage Looper (Trichoplusia ni) ("CL"), second instar larvae; experiment: Bioassay on cabbage looper (CL), 128-well diet tray assay; details: Trichoplusia ni
Method in brief: as §1

[3] = tested on: Green Peach Aphid ("GPA") (Myzus persicae), wingless adult and nymph stages; experiment: Bioassay on green peach aphid (GPA), foliar spray on infested cabbage seedlings; details: Myzus persicae, foliar, 72 h
Procedure: Certain molecules disclosed in this document were tested against GPA using procedures described in the following example. In the reporting of the results, the “GPA Rating Table” was used (See Table Section).
Cabbage seedlings grown in 3-inch pots, with 2-3 small (3-5 cm) true leaves, were used as test substrate. The seedlings were infested with 20-50 GPA (wingless adult and nymph stages) one day prior to chemical application. Four pots with individual seedlings were used for each treatment. Test compounds (2 mg) were dissolved in 2 mL of acetone/methanol (1:1) solvent, forming stock solutions of 1000 ppm test compound. […] A hand-held aspirator-type sprayer was used for spraying a solution to both sides of […] leaves until runoff. Reference plants (solvent check) were sprayed with the diluent only containing 20% by volume of acetone/methanol (1:1) solvent. Treated plants were held in a holding room for three days at approximately 25° C. and ambient relative humidity (RH) prior to grading. Evaluation was conducted by counting the number of live aphids per plant under a microscope.
Corrected % Control=100*(X−Y)/X • where • X=No. of live aphids on solvent check plants and • Y=No. of live aphids on treated plants
The results are indicated in the table entitled “Table ABC: Biological Results” (See Table Section).

[4] = read-out: BAW (Biological Results, rating)
[5] = read-out: CL (Biological Results, rating)
[6] = read-out: GPA (Biological Results, rating)

In the case of `Cc1ccc(C(C)C)c(N2C(=O)C(Cl)S/C2=N\C(=O)Nc2ccc(-c3ncn(-c4ccc(OC(F)(F)F)cc4)n3)cc2)c1` (stereo not drawn) [Compound J314, (Z)-1-(5-Chloro-3-(2-isopropyl-5-methylphenyl)-4-oxothiazolidin-2-ylidene)-3-(4-(1-(4-(trifluoromethoxy)phenyl)-1H-1,2,4-triazol-3-yl)phenyl)urea], the pest or weed control at 50 µg/cm2 [1, 4] is reported as 50 to 100%, the pest or weed control at 50 µg/cm2 [2, 5] is reported as 50 to 100% and the pest or weed control at 200 µg/mL [3, 6] is reported as 0 to 80%.

`Cc1ccc(COCC(F)(F)F)c(N2C(=O)CS/C2=N\C(=O)Nc2ccc(-c3ncn(-c4ccc(C(F)(F)F)cc4)n3)cc2F)c1` [Compound J168, (Z)-1-(2-Fluoro-4-(1-(4-(trifluoromethyl)phenyl)-1H-1,2,4-triazol-3-yl)phenyl)-3-(3-(5-methyl-2-((2,2,2-trifluoroethoxy)methyl)phenyl)-4-oxothiazolidin-2-ylidene)urea] showed a pest or weed control at 50 µg/cm2 [1, 4] of 50 to 100%, a pest or weed control at 50 µg/cm2 [2, 5] of 50 to 100% and a pest or weed control at 200 µg/mL [3, 6] of 0 to 80%.

`Cc1ccc(OCCC(F)(F)F)c(N2C(=O)CS/C2=N\C(=O)Nc2ccc(-c3ncn(-c4ccc(C(F)(F)F)cc4)n3)cc2)c1` [Compound J315, (Z)-1-(3-(5-Methyl-2-(3,3,3-trifluoropropoxy)phenyl)-4-oxothiazolidin-2-ylidene)-3-(4-(1-(4-(trifluoromethyl)phenyl)-1H-1,2,4-triazol-3-yl)phenyl)urea] showed a pest or weed control at 50 µg/cm2 [1, 4] of 50 to 100%, a pest or weed control at 50 µg/cm2 [2, 5] of 50 to 100% and a pest or weed control at 200 µg/mL [3, 6] of 0 to 80%.

In the case of `COC(C)c1ccc(C)cc1N1C(=O)CS/C1=N\C(=O)Nc1ccc(-c2ncn(-c3ccc(C#N)cc3)n2)cc1F` (stereo not drawn) [Compound J291, (Z)-1-(4-(1-(4-Cyanophenyl)-1H-1,2,4-triazol-3-yl)-2-fluorophenyl)-3-(3-(2-(1-methoxyethyl)-5-methylphenyl)-4-oxothiazolidin-2-ylidene)urea], the pest or weed control at 50 µg/cm2 [1, 4] is reported as 50 to 100%, the pest or weed control at 50 µg/cm2 [2, 5] is reported as 50 to 100% and the pest or weed control at 200 µg/mL [3, 6] is reported as 0 to 80%.

For `COc1ccc(C(C)C)c(N2C(=O)CS/C2=N\C(=O)Nc2ccc(-c3ncn(-c4ccc(C)cc4)n3)cc2F)c1` [Compound J149, (Z)-1-(2-Fluoro-4-(1-(p-tolyl)-1H-1,2,4-triazol-3-yl)phenyl)-3-(3-(2-isopropyl-5-methoxyphenyl)-4-oxothiazolidin-2-ylidene)urea], the pest or weed control at 50 µg/cm2 [1, 4] was 50 to 100%, the pest or weed control at 50 µg/cm2 [2, 5] was 50 to 100% and the pest or weed control at 200 µg/mL [3, 6] was 0 to 80%.

For `Cc1ccc(OCC(F)(F)F)c(N2C(=O)CS/C2=N\C(=O)Nc2ccc(-c3ncn(-c4ccc(SC(F)(F)F)cc4)n3)cc2F)c1` [Compound J223, (Z)-1-(2-Fluoro-4-(1-(4-((trifluoromethyl)thio)phenyl)-1H-1,2,4-triazol-3-yl)phenyl)-3-(3-(5-methyl-2-(2,2,2-trifluoroethoxy)phenyl)-4-oxothiazolidin-2-ylidene)urea], the pest or weed control at 50 µg/cm2 [1, 4] was 50 to 100%, the pest or weed control at 50 µg/cm2 [2, 5] was 50 to 100% and the pest or weed control at 200 µg/mL [3, 6] was 0 to 80%.

Compound `COC(c1ccc(C)cc1N1C(=O)CS/C1=N\C(=O)Nc1ccc(-c2ncn(-c3ccc(SC(F)(F)F)cc3)n2)cc1F)C(F)(F)F` (stereo not drawn) [Compound J229, (Z)-1-(2-Fluoro-4-(1-(4-((trifluoromethyl)thio)phenyl)-1H-1,2,4-triazol-3-yl)phenyl)-3-(3-(5-methyl-2-(2,2,2-trifluoro-1-methoxyethyl)phenyl)-4-oxothiazolidin-2-ylidene)urea] has a pest or weed control at 50 µg/cm2 [1, 4] of 50 to 100%, a pest or weed control at 50 µg/cm2 [2, 5] of 50 to 100% and a pest or weed control at 200 µg/mL [3, 6] of 0 to 80%.

Work on `CC(C)c1ccc(N(C)C)cc1N1C(=O)CS/C1=N\C(=O)Nc1ccc(-c2ncn(-c3ccc(OC(F)(F)F)cc3)n2)cc1F` [Compound J318, (Z)-1-(3-(5-(Dimethylamino)-2-isopropylphenyl)-4-oxothiazolidin-2-ylidene)-3-(2-fluoro-4-(1-(4-(trifluoromethoxy)phenyl)-1H-1,2,4-triazol-3-yl)phenyl)urea] yielded a pest or weed control at 50 µg/cm2 [1, 4] of 50 to 100%, a pest or weed control at 50 µg/cm2 [2, 5] of 50 to 100% and a pest or weed control at 200 µg/mL [3, 6] of 0 to 80%.

For `Cc1ccc(COCC(F)(F)F)c(N2C(=O)CS/C2=N\C(=O)Nc2ccc(-c3ncn(-c4ccc(C(F)F)cc4)n3)cc2F)c1` [Compound J686, (Z)-1-(4-(1-(4-(Difluoromethyl)phenyl)-1H-1,2,4-triazol-3-yl)-2-fluorophenyl)-3-(3-(5-methyl-2-((2,2,2-trifluoroethoxy)methyl)phenyl)-4-oxothiazolidin-2-ylidene)urea], the pest or weed control at 50 µg/cm2 ([1]; read-out: BAW rating) was 50 to 100%, the pest or weed control at 50 µg/cm2 ([2]; read-out: CL rating) was 50 to 100% and the pest or weed control at 200 µg/mL ([3]; read-out: GPA rating) was 0 to 80%.

`COC(C)c1ccc(C)cc1N1C(=O)CS/C1=N\C(=O)Nc1ccc(-c2ncn(-c3ccc(SC(F)(F)F)cc3)n2)cc1Cl` (stereo not drawn) [Compound J232, (Z)-1-(2-Chloro-4-(1-(4-((trifluoromethyl)thio)phenyl)-1H-1,2,4-triazol-3-yl)phenyl)-3-(3-(2-(1-methoxyethyl)-5-methylphenyl)-4-oxothiazolidin-2-ylidene)urea] gave a pest or weed control at 50 µg/cm2 [1, 4] of 50 to 100%, a pest or weed control at 50 µg/cm2 [2, 5] of 50 to 100% and a pest or weed control at 200 µg/mL [3, 6] of 0 to 80%.

Work on `CC(C)c1ccc(N(C)C)cc1N1C(=O)CS/C1=N\C(=O)Nc1ccc(-c2cn(-c3ccc(S(=O)(=O)C(F)(F)F)cc3)cn2)cc1F` [Compound J650, (Z)-1-(3-(5-(Dimethylamino)-2-isopropylphenyl)-4-oxothiazolidin-2-ylidene)-3-(2-fluoro-4-(1-(4-((trifluoromethyl)sulfonyl)phenyl)-1H-imidazol-4-yl)phenyl)urea] yielded a pest or weed control at 50 µg/cm2 ([1]; read-out: BAW rating) of 50 to 100%, a pest or weed control at 50 µg/cm2 ([2]; read-out: CL rating) of 50 to 100% and a pest or weed control at 200 µg/mL ([3]; read-out: GPA rating) of 0 to 80%.

`Cc1ccc(-n2cnc(-c3ccc(NC(=O)/N=C4\SCC(=O)N4c4cc(C)ccc4C(C)C)c(F)c3)n2)cc1` [Compound J148, (Z)-1-(2-Fluoro-4-(1-(p-tolyl)-1H-1,2,4-triazol-3-yl)phenyl)-3-(3-(2-isopropyl-5-methylphenyl)-4-oxothiazolidin-2-ylidene)urea] was tested, and the pest or weed control at 50 µg/cm2 [1, 4] was 50 to 100%, the pest or weed control at 50 µg/cm2 [2, 5] was 50 to 100% and the pest or weed control at 200 µg/mL [3, 6] was 0 to 80%.

Work on `Cc1ccc(C(C)C)c(N2C(=O)CS/C2=N\C(=O)Nc2ccc(-c3ncn(-c4cccc(OC(F)(F)F)c4)n3)cc2C)c1` [Compound J135, (Z)-1-(3-(2-Isopropyl-5-methylphenyl)-4-oxothiazolidin-2-ylidene)-3-(2-methyl-4-(1-(3-(trifluoromethoxy)phenyl)-1H-1,2,4-triazol-3-yl)phenyl)urea] yielded a pest or weed control at 50 µg/cm2 [1, 4] of 50 to 100%, a pest or weed control at 50 µg/cm2 [2, 5] of 50 to 100% and a pest or weed control at 200 µg/mL [3, 6] of 0 to 80%.

Compound `Cc1cc(-c2ncn(-c3cccc(C(F)(F)F)c3)n2)ccc1NC(=O)/N=C1\SCC(=O)N1c1cc(N(C)C)ccc1C(C)C` [Compound J133, (Z)-1-(3-(5-(Dimethylamino)-2-isopropylphenyl)-4-oxothiazolidin-2-ylidene)-3-(2-methyl-4-(1-(3-(trifluoromethyl)phenyl)-1H-1,2,4-triazol-3-yl)phenyl)urea] has a pest or weed control at 50 µg/cm2 [1, 4] of 50 to 100%, a pest or weed control at 50 µg/cm2 [2, 5] of 50 to 100% and a pest or weed control at 200 µg/mL [3, 6] of 0 to 80%.

`Cc1ccc(OCCC(F)(F)F)c(N2C(=O)CS/C2=N\C(=O)Nc2ccc(-c3ncn(-c4ccc(C#N)cc4)n3)cc2F)c1` [Compound J288, (Z)-1-(4-(1-(4-Cyanophenyl)-1H-1,2,4-triazol-3-yl)-2-fluorophenyl)-3-(3-(5-methyl-2-(3,3,3-trifluoropropoxy)phenyl)-4-oxothiazolidin-2-ylidene)urea] showed a pest or weed control at 50 µg/cm2 [1, 4] of 50 to 100%, a pest or weed control at 50 µg/cm2 [2, 5] of 50 to 100% and a pest or weed control at 200 µg/mL [3, 6] of 0 to 80%.
